Measured values as given in BigSolDB 2.1.

Compound: COc1ccc(CN2CCNCC2)c(OC)c1OC.Cl.Cl
- solubility (mole fraction) (in 1,4-dioxane, 288.15 K): 5.08e-05
- solubility (mole fraction) (in 1,4-dioxane, 293.15 K): 6.07e-05
- solubility (mole fraction) (in 1,4-dioxane, 298.15 K): 7.16e-05
- solubility (mole fraction) (in 1,4-dioxane, 303.15 K): 8.25e-05
- solubility (mole fraction) (in 1,4-dioxane, 308.15 K): 9.48e-05
- solubility (mole fraction) (in 1,4-dioxane, 313.15 K): 0.000109
- solubility (mole fraction) (in 1,4-dioxane, 318.15 K): 0.000124
- solubility (mole fraction) (in 1,4-dioxane, 323.15 K): 0.000141
- solubility (mole fraction) (in 2-butanone, 278.15 K): 6.02e-06
- solubility (mole fraction) (in 2-butanone, 283.15 K): 6.56e-06
- solubility (mole fraction) (in 2-butanone, 288.15 K): 7.1e-06
- solubility (mole fraction) (in 2-butanone, 293.15 K): 7.72e-06
- solubility (mole fraction) (in 2-butanone, 298.15 K): 8.35e-06
- solubility (mole fraction) (in 2-butanone, 303.15 K): 9.05e-06
- solubility (mole fraction) (in 2-butanone, 308.15 K): 9.85e-06
- solubility (mole fraction) (in 2-butanone, 313.15 K): 1.06e-05
- solubility (mole fraction) (in 2-butanone, 318.15 K): 1.15e-05
- solubility (mole fraction) (in 2-butanone, 323.15 K): 1.24e-05
- solubility (mole fraction) (in DMF, 278.15 K): 0.00053
- solubility (mole fraction) (in DMF, 283.15 K): 0.000566
- solubility (mole fraction) (in DMF, 288.15 K): 0.000609
- solubility (mole fraction) (in DMF, 293.15 K): 0.000658
- solubility (mole fraction) (in DMF, 298.15 K): 0.000705
- solubility (mole fraction) (in DMF, 303.15 K): 0.000754
- solubility (mole fraction) (in DMF, 308.15 K): 0.000803
- solubility (mole fraction) (in DMF, 313.15 K): 0.000857
- solubility (mole fraction) (in DMF, 318.15 K): 0.000913
- solubility (mole fraction) (in DMF, 323.15 K): 0.000975
- solubility (mole fraction) (in acetone, 278.15 K): 6.23e-06
- solubility (mole fraction) (in acetone, 283.15 K): 6.82e-06
- solubility (mole fraction) (in acetone, 288.15 K): 7.47e-06
- solubility (mole fraction) (in acetone, 293.15 K): 8.16e-06
- solubility (mole fraction) (in acetone, 298.15 K): 8.85e-06
- solubility (mole fraction) (in acetone, 303.15 K): 9.62e-06
- solubility (mole fraction) (in acetone, 308.15 K): 1.03e-05
- solubility (mole fraction) (in acetone, 313.15 K): 1.11e-05
- solubility (mole fraction) (in acetone, 318.15 K): 1.2e-05
- solubility (mole fraction) (in acetone, 323.15 K): 1.3e-05
- solubility (mole fraction) (in acetonitrile, 278.15 K): 1.23e-05
- solubility (mole fraction) (in acetonitrile, 283.15 K): 1.37e-05
- solubility (mole fraction) (in acetonitrile, 288.15 K): 1.49e-05
- solubility (mole fraction) (in acetonitrile, 293.15 K): 1.63e-05
- solubility (mole fraction) (in acetonitrile, 298.15 K): 1.77e-05
- solubility (mole fraction) (in acetonitrile, 303.15 K): 1.9e-05
- solubility (mole fraction) (in acetonitrile, 308.15 K): 2.04e-05
- solubility (mole fraction) (in acetonitrile, 313.15 K): 2.19e-05
- solubility (mole fraction) (in acetonitrile, 318.15 K): 2.38e-05
- solubility (mole fraction) (in acetonitrile, 323.15 K): 2.58e-05
- solubility (mole fraction) (in ethanol, 278.15 K): 0.000583
- solubility (mole fraction) (in ethanol, 283.15 K): 0.000652
- solubility (mole fraction) (in ethanol, 288.15 K): 0.000727
- solubility (mole fraction) (in ethanol, 293.15 K): 0.000805
- solubility (mole fraction) (in ethanol, 298.15 K): 0.00089
- solubility (mole fraction) (in ethanol, 303.15 K): 0.000987
- solubility (mole fraction) (in ethanol, 308.15 K): 0.00109
- solubility (mole fraction) (in ethanol, 313.15 K): 0.0012
- solubility (mole fraction) (in ethanol, 318.15 K): 0.00132
- solubility (mole fraction) (in ethanol, 323.15 K): 0.00145
- solubility (mole fraction) (in ethyl acetate, 278.15 K): 0.00201
- solubility (mole fraction) (in ethyl acetate, 283.15 K): 0.00209
- solubility (mole fraction) (in ethyl acetate, 288.15 K): 0.00217
- solubility (mole fraction) (in ethyl acetate, 293.15 K): 0.00226
- solubility (mole fraction) (in ethyl acetate, 298.15 K): 0.00234
- solubility (mole fraction) (in ethyl acetate, 303.15 K): 0.00244
- solubility (mole fraction) (in ethyl acetate, 308.15 K): 0.00254
- solubility (mole fraction) (in ethyl acetate, 313.15 K): 0.00264
- solubility (mole fraction) (in ethyl acetate, 318.15 K): 0.00275
- solubility (mole fraction) (in ethyl acetate, 323.15 K): 0.00286
- solubility (mole fraction) (in isopropanol, 278.15 K): 7.61e-05
- solubility (mole fraction) (in isopropanol, 283.15 K): 9.15e-05
- solubility (mole fraction) (in isopropanol, 288.15 K): 0.00011
- solubility (mole fraction) (in isopropanol, 293.15 K): 0.000133
- solubility (mole fraction) (in isopropanol, 298.15 K): 0.000157
- solubility (mole fraction) (in isopropanol, 303.15 K): 0.000184
- solubility (mole fraction) (in isopropanol, 308.15 K): 0.000215
- solubility (mole fraction) (in isopropanol, 313.15 K): 0.000247
- solubility (mole fraction) (in isopropanol, 318.15 K): 0.000287
- solubility (mole fraction) (in isopropanol, 323.15 K): 0.000333
- solubility (mole fraction) (in methanol, 278.15 K): 0.00353
- solubility (mole fraction) (in methanol, 283.15 K): 0.00402
- solubility (mole fraction) (in methanol, 288.15 K): 0.00458
- solubility (mole fraction) (in methanol, 293.15 K): 0.00524
- solubility (mole fraction) (in methanol, 298.15 K): 0.00603
- solubility (mole fraction) (in methanol, 303.15 K): 0.00682
- solubility (mole fraction) (in methanol, 308.15 K): 0.00777
- solubility (mole fraction) (in methanol, 313.15 K): 0.00882
- solubility (mole fraction) (in methanol, 318.15 K): 0.00993
- solubility (mole fraction) (in methanol, 323.15 K): 0.0111
- solubility (mole fraction) (in n-butanol, 278.15 K): 0.000131
- solubility (mole fraction) (in n-butanol, 283.15 K): 0.000153
- solubility (mole fraction) (in n-butanol, 288.15 K): 0.000177
- solubility (mole fraction) (in n-butanol, 293.15 K): 0.000201
- solubility (mole fraction) (in n-butanol, 298.15 K): 0.000232
- solubility (mole fraction) (in n-butanol, 303.15 K): 0.000263
- solubility (mole fraction) (in n-butanol, 308.15 K): 0.000297
- solubility (mole fraction) (in n-butanol, 313.15 K): 0.000336
- solubility (mole fraction) (in n-butanol, 318.15 K): 0.000383
- solubility (mole fraction) (in n-butanol, 323.15 K): 0.000432
- solubility (mole fraction) (in n-propanol, 278.15 K): 0.000193
- solubility (mole fraction) (in n-propanol, 283.15 K): 0.000217
- solubility (mole fraction) (in n-propanol, 288.15 K): 0.000246
- solubility (mole fraction) (in n-propanol, 293.15 K): 0.000281
- solubility (mole fraction) (in n-propanol, 298.15 K): 0.000322
- solubility (mole fraction) (in n-propanol, 303.15 K): 0.000366
- solubility (mole fraction) (in n-propanol, 308.15 K): 0.000413
- solubility (mole fraction) (in n-propanol, 313.15 K): 0.000464
- solubility (mole fraction) (in n-propanol, 318.15 K): 0.000521
- solubility (mole fraction) (in n-propanol, 323.15 K): 0.000581
- solubility (mole fraction) (in toluene, 278.15 K): 7.02e-07
- solubility (mole fraction) (in toluene, 283.15 K): 8.19e-07
- solubility (mole fraction) (in toluene, 288.15 K): 9.58e-07
- solubility (mole fraction) (in toluene, 293.15 K): 1.12e-06
- solubility (mole fraction) (in toluene, 298.15 K): 1.33e-06
- solubility (mole fraction) (in toluene, 303.15 K): 1.57e-06
- solubility (mole fraction) (in toluene, 308.15 K): 1.83e-06
- solubility (mole fraction) (in toluene, 313.15 K): 2.12e-06
- solubility (mole fraction) (in toluene, 318.15 K): 2.43e-06
- solubility (mole fraction) (in toluene, 323.15 K): 2.76e-06
